Residue numbers refer to the chain shown, from its start.
Columns and labels:
Assay in all cases: Mutant β-galactosidase activity in model cells, 4 days culture
Assay type in all cases: cell-based
[1] = biological target: T1, human mutant β-galactosidase R457Q (Homo sapiens, UniProt P16278, R457Q)
T1 construct: expressed in transfected cells; host or cells: SV40-immortalized skin fibroblasts of a β-galactosidase-deficient knockout mouse
T1 sequence (P16278 29-677 R457Q): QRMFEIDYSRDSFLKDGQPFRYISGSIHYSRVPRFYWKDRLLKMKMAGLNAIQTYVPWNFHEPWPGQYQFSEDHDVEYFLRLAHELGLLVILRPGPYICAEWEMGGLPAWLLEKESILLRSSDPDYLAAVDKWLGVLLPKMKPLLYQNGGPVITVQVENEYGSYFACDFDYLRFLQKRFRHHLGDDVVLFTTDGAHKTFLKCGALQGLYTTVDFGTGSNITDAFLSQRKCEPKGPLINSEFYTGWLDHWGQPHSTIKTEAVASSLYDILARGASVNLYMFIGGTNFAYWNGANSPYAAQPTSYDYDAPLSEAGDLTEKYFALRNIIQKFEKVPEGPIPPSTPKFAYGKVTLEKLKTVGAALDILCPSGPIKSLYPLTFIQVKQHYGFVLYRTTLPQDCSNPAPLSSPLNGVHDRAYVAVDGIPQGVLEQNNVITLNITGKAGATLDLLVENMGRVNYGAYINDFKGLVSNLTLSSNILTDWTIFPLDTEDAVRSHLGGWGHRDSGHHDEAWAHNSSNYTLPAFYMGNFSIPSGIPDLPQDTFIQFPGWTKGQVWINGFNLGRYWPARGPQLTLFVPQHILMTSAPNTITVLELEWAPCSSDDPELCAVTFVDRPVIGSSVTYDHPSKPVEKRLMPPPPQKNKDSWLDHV

[2] = biological target: T2, human mutant β-galactosidase I51T (Homo sapiens, UniProt P16278, I51T)
T2 construct: expressed in transfected cells; host or cells: SV40-immortalized skin fibroblasts of a β-galactosidase-deficient knockout mouse
T2 sequence (P16278 29-677 I51T): T1 sequence (P16278 29-677 R457Q) with I23T, Q429R

[3] = biological target: T3, human mutant β-galactosidase R201C (Homo sapiens, UniProt P16278, R201C)
T3 construct: from tissue
T3 sequence (P16278 29-677 R201C): T1 sequence (P16278 29-677 R457Q) with R173C, Q429R

Structure (SMILES)	enzyme activity, Control ([1]; transferred gene R457Q, control substance 0.5 mM NB-DGJ)	enzyme activity, Control ([2]; transferred gene I51T, control substance 0.5 mM NB-DGJ)	enzyme activity, Control ([3]; transferred gene R201C, control substance 0.5 mM NB-DGJ)	enzyme activity increased in comparison with the control ([1]; R457Q, 0.2 μM)	Relative ratio (×100%) ([1]; R457Q, substance 18 vs control)	enzyme activity ([1]; transferred gene R457Q, 0.2 μM, 4 days)	Relative ratio (×100%) ([2]; I51T, substance 18 vs control)	enzyme activity ([2]; transferred gene I51T, 0.2 μM, 4 days)	enzyme activity increased in comparison with the control ([3]; R201C, 0.2 μM)	Relative ratio (×100%) ([3]; R201C, substance 18 vs control)	enzyme activity ([3]; transferred gene R201C, 0.2 μM, 4 days)
CCCCN1C[C@H](O)[C@@H](O)[C@@H](O)[C@H]1CO [Control, N-(n-butyl)-deoxygalactonojirimycin, reference compound]	5.84	1.42	20.16	–	–	–	–	–	–	–	–
CCCCCCCCN[C@@H]1C=C(CO)[C@H](O)C(O)[C@@H]1O (stereo partly drawn) [Substance 18, N-octyl-5a-carba-α-L-arabino-hexo-5(5a)-enopyranosylamine]	–	–	–	≥ 150%	2.42 ×100%	14.17	3.08 ×100%	4.37	≥ 150%	2.43 ×100%	48.88

Reference: patent US8211945B2, “Carba-sugar amine derivative and glycolipid metabolic disorder treating agent containing the same as active ingredient” (Seikagaku Corporation, priority 2001, dated 2012)
